# Test results published in ChEMBL document CHEMBL3046944, “NEW QUASSINOIDS FROM AILANTHUS EXCELSA” (Med Chem Res, 2004).
# The source made the active and inactive calls. No cut-off for these calls is given here.
# Columns and labels:
# Plasmodium falciparum [1] = assay: Antimalarial activity against Plasmodium falciparum assessed as growth inhibition at 0.2 uM; format: functional, organism-based
# Plasmodium falciparum [2] = assay: Antimalarial activity against Plasmodium falciparum assessed as growth inhibition at 25 nM; format: functional, organism-based
Compound,growth inhibition (GI) (Plasmodium falciparum [1]),growth inhibition (GI) (Plasmodium falciparum [2])
CCC(C)C(=O)O[C@H]1C(=O)O[C@@H]2C[C@H]3C(C)=C[C@H](O)[C@@H](O)[C@]3(C)[C@H]3[C@@]4(O)OC[C@]32[C@@H]1[C@@H](C)[C@H]4O (some centres not stated),Active,–
CCN(CC)CCCC(C)Nc1ccnc2cc(Cl)ccc12 (configuration not stated),–,Active
